Experimental data taken from patent US20150238507A1, “BENZODIAZEPINES FOR TREATING SMALL CELL LUNG CANCER” (GlaxoSmithKline LLC, priority 2012, published 2015).
Read-outs that look alike come from different tables or passages of the source.

Assays:
[1] = system: small cell lung cancer lines; test: 6 day proliferation (cell growth) assay, panel of 38 small cell lung cancer lines; format: cell-based; conditions: 6 day proliferation assay; for IC50: 144 h
[2] = system: NCI-H526 cell line xenograft; test: SCLC subcutaneous mouse xenograft model, efficacy and pharmacodynamics; format: in vivo; conditions: 25 mg/kg QD

## CCNC(=O)C[C@@H]1N=C(c2ccc(Cl)cc2)c2cc(OC)ccc2-n2c(C)nnc21 [2-[(4S)-6-(4-chlorophenyl)-1-methyl-8-(methyloxy)-4H-[1,2,4]triazolo[4,3-a][1,4]benzodiazepin-4-yl]-N-ethylacetamide]
[1]; median of 38 small cell lung cancer lines, read-out: gIC50 (median over the panel)
  IC50: 1460 nM
[1]; panel of 38 small cell lung cancer lines, read-out: gIC50 (range over the panel)
  IC50: 109 to 29300 nM
[1]; of the 38 small cell lung cancer lines
  number of lines showing gIC50<10000 nM: 33
[2]; NCI-H526 subcutaneous mouse xenograft
  reduction of tumour growth: 70%
[2]; NCI-H526 xenograft, antibody-based immunochemistry assay
  p21 protein expression and caspase activation in tumour: induce p21 protein expression and caspase activation
